Reference: patent US12454704B2, “Efficient gene delivery tool with a wide therapeutic margin” (priority 2019, dated 2025)

Assays:
Neuro2a cells [1] = test: Cell confluency as a measure of cell viability, determined optically (Cytosmart); type: cell-based, murine; conditions: saponin 24 μg/mL applied 24 h after seeding
Procedure: Murine neuroblastoma cells (Neuro2a cells, ATTC CCL-131™) were cultured in Dulbecco's Modified Eagle's Medium (DMEM), containing 1 g/L D-Glucose, 10% FBS and stable glutamine, at 37° C. and 5% CO2. These cells were then incubated with different saponins to test the cytotoxic effect of the saponins.
The cell confluency as a measure of cell viability was determined optically via cell number calculating algorithms (Cytosmart). The results are depicted in FIGS. 1A to 1D.
Buffer was used in each case as negative control.

Neuro2a cells [2] = test: Cell viability test via impedance measurement (iCELLigence); type: cell-based, murine
Procedure: The impedance (alternating current resistance) at the well bottom as real-time cell viability measure of adherent cells was determined by the iCELLigence® device. 8000 Neuro2a cells per well were seeded into two 8-well E-plates L8 and incubated for 24 h in a volume of 800 μL. For transfection toxicity studies 50 μL of reagent was added after the respective volume of culture medium was removed. Each 10 minutes the impedance/viability was measured.
The curves indicated in FIG. 2 represent the results of the following measurements: […]

Neuro2a cells [3] = test: Cell viability test by MTT assay; type: cell-based, murine; conditions: same concentration for all saponins (FIG. 3)
From the text: The determination of mitochondrial activity due to the formation of formazan out of MTT served as biochemical method to measure cell viability.

Neuro2a cells [4] = test: Sapofection: transfection efficiency of GFP-encoding PD nanoplexes by flow cytometry; type: cell-based, murine
Procedure: The PD nanoplexes comprised DNA encoding for the green fluorescent protein (GFP). Therewith, the transfection efficiency could very easily be monitored by detecting the fluorescence of the cells that have been incubated with the corresponding DNA nanoparticles. The corresponding incubation period was chosen to be 48 hours in the present case.
20 mg of positively charged poly-lysine peptides without an integrin-receptor-targeting amino sequence were purchased from Genecust. The vector of p-EGFP-N3, coding for the green fluorescing protein (GFP), was obtained and propagated with DH5α— E. coli cells (1.645 mg/mL). StemMACS™ eGFP mRNA (20 μg) and GFP encoding minicircle DNA (Gene Bank Accession: U55761) were used as further nucleic acids. In order to conduct the transfection, nanoplexes were formulated as follows: The poly-lysine peptides (P) and the p-EGFP-N3 vector (D), were diluted in water (each 50 μL) and mixed thoroughly by fast pipetting in a ratio of 4:1. The nanoplexes were allowed to form in a 30-minute incubation step. Thereafter, the nanoplex suspension was diluted with OptiMEM to a total volume of 1 mL. The commercial transfection reagent Lipofectamin®3000 was formulated as described by the manufacturer.
Neuro2a cells (15,000 cells/well) were seeded in a 24-well-plate with a well volume of 400 μL culture medium and incubated for 24 h. The transfection reagents were formulated as described above and admixed with saponin solution, if required. The culture medium was replaced with the transfection medium with a final amount of 500 ng DNA/RNA. After a 48 h incubation period, the transfection medium was removed, the cells were trypsinized and transferred in a polystyrene tube for flow cytometry (Cytoflex). For each measurement 10,000 cells were acquired. The transfection efficiency was determined by the analysis software Cyflogic (by comparison of the sample plots with the negative control in terms of fluorescence).

Neuro2a cells [5] = type: cell-based, murine; conditions: saponin alone, 4 μg/mL
From the text: FIGS. 6A and 6B show cell viability tests upon AG1856-mediated delivery of GFP-minicircle-DNA- or RIP-minicircle-DNA-bearing nanoplexes.
Saporin and dianthin are cytotoxic proteins. If the transfection is successful, the transfected cells will die.
The curves depicted in FIG. 6A represent the results of the following measurements: […]

female NMRI nu/nu mice = test: Chronic toxicity (tolerability) study of nanoplasmids (NP) plus AG1856 in vivo; conditions: 90 μg per mouse
Procedure: This study was performed to evaluate the tolerability of combined treatment of nanoplasmids (NP) and AG1856 in Naval Medical Research Institute (NMRI) nu/nu mice.
For the study, female NMRI nu/nu mice were used. Animals were treated with NP+AG1856 at doses of 50 and 90 μg/mouse respectively and after animal recovery in a second round at same doses.

Neuro2a cells [6] = type: cell-based, murine; conditions: 5 μg/mL
From the text: To evaluate an enhancement of the transfection efficiency through AG1856 an optical based cytotoxicity assay after transfection with ribosome inactivating proteins (RIPs) was chosen.
As transgenes, 6-His-Agrostin RNA3 (Weise et al. 2020) and 6-His-Saporin 3 (Fabbrini et al. 1997) were cloned via BamHI and XbaI (Agrostin) and via SalI and NheI cleavage into pMC.CMV-MCS-SV40polyA (BioCat GmbH, Heidelberg, Germany) to produce minicircle with ZYCY10P3S2T (Kay et al. 2010). In addition to this, Saporin 3 and Gypsophillin S (Kokorin et al. 2019) were cloned into NTC9385R-BGHpA-Nanoplasmids and synthesized by Nature Technology Corporation (Lincoln, NB, USA) as previously described (Luke et al. 2011).
For 3 wells (96-Well-Plate), 300 ng plasmid DNA were diluted in 25 μL water and mixed with 25 μL of a solution with 2,100 ng Peptide Y (K16GACYGLPHKFCG) (GeneCust, Dudelage, Luxembourg). After an incubation period of 30 min, the nanoplexes were formed automatically. […]
The cytotoxic effect of the different constructs on the cells was measured by a CytoSMART® Omni, a camera-based system which took a photo of the bottom of each well every hour. The CytoSMART® Omni software calculated the confluence which is formed by living cells which are attached to the bottom. So, the cell growth could be monitored for 72 h. […]

Row | Compound | toxic effect (cell confluency as a measure of cell viability) (Neuro2a cells [1]) | toxicity (impedance, real-time cell viability) (Neuro2a cells [2]; stepwise increase of AG1856 concentration, 2 to 24 μg/mL) | toxicity-mediated drop of viability (MTT) (Neuro2a cells [3]) | transfection efficiency (Neuro2a cells [4]; GFP-plasmid nanoplexes, saponin increased from working concentration to 24 μg/mL (FIG. 5)) | transfection efficiency (Neuro2a cells [4]; PD nanoplexes (GFP DNA), saponin 2 μg/mL, 48 h incubation, versus Lipofectamin3000) | transfection efficiency (Neuro2a cells [4]; PD nanoplexes (GFP DNA), saponin 4 μg/mL or higher, 48 h incubation, versus Lipofectamin3000) | fluorescing cells (flow cytometric analysis) (Neuro2a cells [4]; transfection with GFP minicircle DNA performed with AG1856, n>3 (FIG. 6B)) | toxicity (cell viability) (Neuro2a cells [5]) | tolerance compared to other saponins (female NMRI nu/nu mice) | proliferation worse than the negative group (normalized confluence) (Neuro2a cells [6]; AG1856 only) [%] | toxicity (impedance, real-time cell viability) (Neuro2a cells [2]; positive control, 4 μg/mL) | growth of the cells (normalized confluence) (Neuro2a cells [6]; positive control)
1 | CC(=O)OCC1OC(OC2C(O)C(OC3C(OC(=O)C45CCC(C)(C)CC4C4=CCC6C7(C)CCC(OC8OC(C(=O)O)C(O)C(OC9OCC(O)C(O)C9O)C8OC8OC(CO)C(O)C(O)C8O)C(C)(C=O)C7CCC6(C)C4(C)CC5O)OC(C)C(OC4OC(C)C(OC(C)=O)C(OC(C)=O)C4O)C3O)OC(C)C2OC2OCC(O)C(O)C2O)C(O)C(O)C1OC(C)=O (stereo not drawn) [AG1856] | No distinct toxic effect | no significant toxicity increase | could not be observed | even increased efficiency | comparable to that of the gold standard Lipofectamin | even higher than that of Lipofectamin | Four cells out of five | no toxicity | superior tolerance | 12 |  | 
2 | COc1ccc(C[C@H](N)C(=O)N[C@H]2[C@@H](O)[C@H](n3cnc4c(N(C)C)ncnc43)O[C@@H]2CO)cc1 [puromycin, reference compound] |  |  |  |  |  |  |  |  |  |  | toxic | inhibit the growth of the cells instantly
